From patent publication US20240174723A1, “STAPLED ANTIMICROBIAL PEPTIDES (STAMPS) AND USES THEREOF” (Lytica Therapeutics, Inc., priority 2021, published 2024) come the findings set out here.

Positions of bridges follow the written chain, without caps; N, C: chain ends. Non-standard residues stand in square brackets, D forms with d. Residues, ends and D or L forms follow the SMILES beside them. S5 = C=CCCC[C@](C)(N)C(=O)O; Dap = NC[C@H](N)C(=O)O

In experiment [1] the test system is E. coli. The class given is cell-based, Escherichia coli. Here is the method:
(§1) Antimicrobial Activity Assay: The following microbroth dilution protocol was adapted from CLSI to determine the minimum inhibitory concentration (MIC) of StAMPs. Briefly, Mueller-Hinton broth (MHB) or cation-adjusted Mueller-Hinton broth (MHB II) was prepared and autoclaved. Then, a colony of bacterial cells was picked and grown overnight in broth at 37° C. and then diluted and allowed to grow again for 3-4 hours. Serial dilutions of peptide stocks in water (10 μl) were prepared using clear round-bottom polypropylene 96-well plates. Then 90 μl of bacteria in broth was added to give a final inoculum of 5×10^5 CFU/ml. The plates were then covered with porous tape to reduce evaporation and incubated for 20-24 hours at 37° C. The MIC was the minimum peptide concentration at which no visible bacterial growth was observed.
(§2) Renal toxicity was measured after 90 minutes of incubation, while liver toxicity was measured after 48 hours of incubation with StAMPs. N/A=not tested. The following apply to all peptides (i.e., StAMPs) listed in Tables A-C: Crosslinks (X^1—X^2 and X^3—X^4): (alk); N-terminus: —NH2; C-terminus: amidated with —NH2; counterion: Cl^−. The following apply to all peptides (i.e., StAMPs) listed in Table D: Crosslinks (X^1—X^2 and X^3—X^4): (alk); N-terminus: —NH2; C-terminus: as shown in table; counterion: Cl^−.

For experiment [2], the system named is P. aeruginosa. The experiment is classed as cell-based, Pseudomonas aeruginosa. As for the experimental part: as §1, §2
StAMP Micelle Formulation: DSPE-MPEG(2000) was suspended in buffered saline at 50-100 mg/mL overnight. StAMP stock solutions at 5-20 mg/mL in buffered saline were prepared and equal volumes of micelle and StAMP stock solution were mixed at the desired StAMP:Lipid ratio. Suspensions were allowed to sit for 5-10 minutes at room temperature before being used in in vitro and in vivo assays. […]

For experiment [3], the system named is K. pneumoniae. The class given is cell-based, Klebsiella pneumoniae. As for the experimental part: as §1, §2
Experiment [4] concerns A. baumannii. The experiment is classed as cell-based, Acinetobacter baumannii. As for the experimental part: as §1, §2
Experiment [5] concerns S. aureus. The experiment is classed as cell-based, Staphylococcus aureus. As for the experimental part: as §1, §2

As to `CC(C)[C@@H]1NC(=O)[C@@](C)(NC(=O)[C@H](C)NC(=O)[C@H](CCCCN)NC(=O)CNC(=O)[C@H](Cc2ccccc2)NC(=O)[C@H](CCCCN)NC(=O)[C@H](CCCCN)NC(=O)[C@H](CCCCN)NC(=O)[C@H](CCCCN)NC(=O)[C@H](CCCCN)NC(=O)[C@]2(C)CCCC=CCCC[C@](C)(NC(=O)CN)C(=O)NCC(=O)N[C@@H](CCCCN)C(=O)N[C@@H](Cc3ccccc3)C(=O)N2)CCCC=CCCC[C@@](C)(C(=O)N[C@@H](C)C(=O)N[C@@H](CN)C(=O)N[C@@H](CCCCN)C(N)=O)NC(=O)[C@H](CCC(=O)O)NC(=O)CNC1=O` [compound 51] (H-G[S5]GKF[S5]KKKKKFGKA[S5]VGE[S5]A[Dap]K-NH2; staple 2-6, 16-20), the “Minimum Inhibitory Concentration (MIC) E. coli” value in experiment [1] was determined as 2 µg/mL. Also, the “Minimum Inhibitory Concentration (MIC) P. aeruginosa” value in experiment [2] was 4 µg/mL. For the same molecule, the “Minimum Inhibitory Concentration (MIC) K. pneumoniae” value in experiment [3] stood at 4 µg/mL. In addition, the “Minimum Inhibitory Concentration (MIC) A. baumannii” value in experiment [4] came out at 2 µg/mL. Besides, the “Minimum Inhibitory Concentration (MIC) S. aureus” value in experiment [5] was greater than 64 µg/mL.

Consider `CC(C)[C@@H]1NC(=O)[C@@](C)(NC(=O)[C@H](C)NC(=O)[C@H](CCCCN)NC(=O)CNC(=O)[C@H](Cc2ccccc2)NC(=O)[C@H](CCCCN)NC(=O)[C@H](CN)NC(=O)[C@H](CCCCN)NC(=O)[C@H](CCCCN)NC(=O)[C@H](CCCCN)NC(=O)[C@]2(C)CCCC=CCCC[C@](C)(NC(=O)CN)C(=O)NCC(=O)N[C@@H](CCCCN)C(=O)N[C@@H](Cc3ccccc3)C(=O)N2)CCCC=CCCC[C@@](C)(C(=O)N[C@@H](C)C(=O)N[C@@H](CCCCN)C(=O)N[C@@H](CCCCN)C(N)=O)NC(=O)[C@H](CCC(=O)O)NC(=O)CNC1=O` [compound 48] (H-G[S5]GKF[S5]KKK[Dap]KFGKA[S5]VGE[S5]AKK-NH2; staple 2-6, 16-20), for which the “Minimum Inhibitory Concentration (MIC) E. coli” value in experiment [1] was found to be 4 µg/mL. Further, in experiment [2], the “Minimum Inhibitory Concentration (MIC) P. aeruginosa” value turned out to be 8 µg/mL. The “Minimum Inhibitory Concentration (MIC) K. pneumoniae” value in experiment [3] amounted to 16 µg/mL. Also, in experiment [4], the “Minimum Inhibitory Concentration (MIC) A. baumannii” value came to 2 µg/mL. The “Minimum Inhibitory Concentration (MIC) S. aureus” value in experiment [5] was greater than 64 µg/mL.

For the molecule `CC(C)[C@@H]1NC(=O)[C@@](C)(NC(=O)[C@H](C)NC(=O)[C@H](CN)NC(=O)CNC(=O)[C@H](Cc2ccccc2)NC(=O)[C@H](CCCCN)NC(=O)[C@H](CCCCN)NC(=O)[C@H](CCCCN)NC(=O)[C@H](CCCCN)NC(=O)[C@H](CCCCN)NC(=O)[C@]2(C)CCCC=CCCC[C@](C)(NC(=O)CN)C(=O)NCC(=O)N[C@@H](CCCCN)C(=O)N[C@@H](Cc3ccccc3)C(=O)N2)CCCC=CCCC[C@@](C)(C(=O)N[C@@H](C)C(=O)N[C@@H](CCCCN)C(=O)N[C@@H](CCCCN)C(N)=O)NC(=O)[C@H](CCC(=O)O)NC(=O)CNC1=O` [compound 50] (H-G[S5]GKF[S5]KKKKKFG[Dap]A[S5]VGE[S5]AKK-NH2; staple 2-6, 16-20), the “Minimum Inhibitory Concentration (MIC) E. coli” value in experiment [1] came to 4 µg/mL. Further, in experiment [2], the “Minimum Inhibitory Concentration (MIC) P. aeruginosa” value turned out to be 8 µg/mL. Further, the “Minimum Inhibitory Concentration (MIC) K. pneumoniae” value in experiment [3] came to 8 µg/mL. Besides, the “Minimum Inhibitory Concentration (MIC) A. baumannii” value in experiment [4] turned out to be 2 µg/mL. Besides, the “Minimum Inhibitory Concentration (MIC) S. aureus” value in experiment [5] was greater than 64 µg/mL.

In the case of `CC(C)[C@@H]1NC(=O)[C@@](C)(NC(=O)[C@H](C)NC(=O)[C@H](CCCCN)NC(=O)CNC(=O)[C@H](Cc2ccccc2)NC(=O)[C@H](CCCCN)NC(=O)[C@H](CCCCN)NC(=O)[C@H](CCCCN)NC(=O)[C@H](CN)NC(=O)[C@H](CCCCN)NC(=O)[C@]2(C)CCCC=CCCC[C@](C)(NC(=O)CN)C(=O)NCC(=O)N[C@@H](CCCCN)C(=O)N[C@@H](Cc3ccccc3)C(=O)N2)CCCC=CCCC[C@@](C)(C(=O)N[C@@H](C)C(=O)N[C@@H](CCCCN)C(=O)N[C@@H](CCCCN)C(N)=O)NC(=O)[C@H](CCC(=O)O)NC(=O)CNC1=O` [compound 47] (H-G[S5]GKF[S5]K[Dap]KKKFGKA[S5]VGE[S5]AKK-NH2; staple 2-6, 16-20), the “Minimum Inhibitory Concentration (MIC) E. coli” value in experiment [1] came out at 2 µg/mL. Besides, the “Minimum Inhibitory Concentration (MIC) P. aeruginosa” value in experiment [2] turned out to be 4 µg/mL. The “Minimum Inhibitory Concentration (MIC) K. pneumoniae” value in experiment [3] was found to be 6 µg/mL. The “Minimum Inhibitory Concentration (MIC) A. baumannii” value in experiment [4] came out at 2 µg/mL. Further, in experiment [5], the “Minimum Inhibitory Concentration (MIC) S. aureus” value was greater than 64 µg/mL.
